Laboratory results published in US5814627A, “3, 5-disubstituted and 3, 4, 5-trisubstituted 2-isoxazolines and isoxazoles, process for their preparation and their use as pharmaceuticals” (Hoechst Aktienegesellschaft, priority 1994, dated 1998).
pIC50: −log10 of the molar value.

What was measured:
[1] = tested on: IL-1α release from mononuclear cells; assay: Test 4: cytokine release from LPS-stimulated mononuclear cells, IL-1α; type: cell-based; conditions: Homo sapiens, 10 μM, read-out: Test 4 residual activity (IL-1α release), percent of control
Protocol: Test 4. Stimulation of the cytokine release
Isolation of mononuclear cells from human blood
10 ml of human blood, stabilized with 1 ml of 3.8% sodium citrate solution, were diluted with 10 ml of PM16 (Serva, Heidelberg) and underlaid with 15 ml of Lymphoprep (Dr. Molter GmbH, Heidelberg). The samples were centrifuged, at room temperature for 40 minutes, at 400×g (1600 rpm, Minifuge 2, Heraeus, Osterode). The mononuclear cells are visible as a white ring at the Lymphoprep/plasma interface. This ring was carefully removed with a syringe, diluted with an equal volume of PM16, and centrifuged for 10 minutes at 400×g. The sediment was washed with approximately 10 ml of RPMI1640 (+300 mg/l L-glutamine, Gibco, Eggenstein) (Wallis, 1986). After the cells had been resuspended in approximately 1 ml of RPMI1640 (+300 mg/l L-glutamine+25 mM HEPES+100 μg/ml streptomycin+100 μg/ml penicillin), the cell density was determined using a Coulter Counter JT (Coulter Diagnostics) and adjusted to 5*10^6 /ml. Typically, the cells are composed of 90% lymphocytes and 10% monocytes.
230 μl of mononuclear cells were incubated, at 37° C.; 5% CO2 for 20-22 hours (5 hours in the case of IL-6), with 10 μl of test substance ([…]) and 10 μl of lipopolysaccharide (LPS; 500 μg dissolved in 1 ml of DMSO and diluted 1/10 with water prior to beginning the test; from Salmonella abortus equi, Sigma, Deisenhofen). The samples were cooled down to 0° C. in an ice bath and centrifuged in a Sigma centrifuge (2 minutes; 2000 rpm). Aliquots of the supernatant are measured with an ELISA (Biermann, Bad Nauheim). The abbreviation IL stands for interleukin and TNF for tumor necrosis factor alpha.
(§1) The values in the table show the concentration of the test substance which was employed in μM and, besides this, the residual activity measured in percent based on the control, which was set to be 100%. The interleukin is additionally indicated in test 4.

[2] = tested on: polymorphonuclear leucocytes (PMNL); assay: Test 2: Release of oxygen radicals from human PMNL; type: cell-based; conditions: read-out: Test 2 residual activity (release of oxygen radicals), percent of control
Protocol: Isolation of polymorphonuclear leucocytes (PMNL) from human peripheral blood for carrying out tests 1 and 2 10 ml of human blood were diluted with 10 ml of HBSS (Serva) and underlaid with 15 ml of Lymphoprep (Dr. Molter GmbH, Heidelberg). The sample was then centrifuged for 25 minutes at 400×g (1600 revolutions per minute, Minifuge 2, Heraeus, Osterode). […] A white ring, composed of mononuclear cells, is located between these two phases. The lowermost phase is composed of erythrocytes which are covered with a white layer of PMNL. The uppermost phase, and also the Lymphoprep and the white ring, were carefully removed using a syringe. The remaining sediment was carefully resuspended in 15 ml of 3% dextran in PM16 (mw: 485,000, Sigma, Deisenhofen). The suspension was then left to stand at room temperature for one hour. During this time, the erythrocytes sedimented while the PMNL remained in the supernatant. The supernatant was removed, diluted with an approximately equal volume of PM16, and centrifuged for 15 minutes at 400×g. Should the PMNL sediment be heavily contaminated with erythrocytes, it is necessary to carry out a hypotonic lysis. To do this, the sediment was resuspended in 750 μl of water. After exactly 15 seconds, the suspension was diluted with approximately 7 ml of PM16 and centrifuged for 10 minutes at 400×g. If necessary, this lysis was repeated once more. Otherwise, the PMNL sediment was resuspended in a suitable medium.
The PMNL were resuspended (5·10^6 cells/ml) in Dulbecco's PBS, supplemented with 7.5 mM glucose. Care must be taken to ensure that the PMNL are free of erythrocytes. 100 μl of PMNL, 700 μl of PBS+glucose and 100 μl of cytochrome C (9.38 mg/ml of PBS+glucose) were mixed in a semi-microcuvette. 100 μl of PMNL, 500 μl of PBS+glucose, 100 μl of cytochalasin B ([…]), 100 μl of TNF (0.05 ng) and 100 μl of cytochrome C (9.38 mg/ml of PBS+glucose) were mixed for the fMLP-induced release of oxygen. Measurements were made in a double-beam photometer meter (Perkin-Elmer 552 S) at a wavelength of 550 nm. The measurement range is 0-1 extinction units. The cuvettes were temperature-equilibrated to 37° C. The reference cuvette additionally contained 10 μl of SOD (6 mg of SOD/ml of PBS+glucose). Following a preincubation of 5 minutes, the reaction is started with 100 μl of inducer. The reaction is started with 1·10^-7 mol of fMLP.
as §1

[3] = tested on: tumor cell line 20-10-5S (hybridoma cell line); assay: Test 8: Inhibition of tumor cell proliferation; type: cell-based; conditions: 48 h + 16 h tritiated thymidine incorporation; 20-10-5S cells
[4] = tested on: cyclooxygenase-dependent thrombocyte aggregation; assay: Test 5: Cyclooxygenase-dependent thrombocyte aggregation; type: cell-based, human; conditions: Homo sapiens, arachidonic acid as inducer, read-out: Test 5 residual activity (cyclooxygenase-dependent thrombocyte aggregation), percent of control
Procedure, shortened: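 Citrated human platelet-rich plasma was preincubated 10 min at 37 °C with test substance diluted 1:30 in 50 mM Tris-HCl pH 8.0, 90 mM NaCl. Aggregation was triggered with arachidonic acid (5 mg/ml, 20 μl) under 800 rpm stirring in an aggregometer. Values are tested concentration (μM) and residual activity as % of control.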

[5] = tested on: PAF-induced asthma attack; assay: Test 7: antiasthmatic effect, PAF-induced asthma attack; type: in vivo; conditions: Cavia porcellus; i.d., 15 minutes before PAF; guinea pig
Procedure, shortened: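 Anesthetized guinea pigs given PAF through a jugular vein cannula; test compounds dosed i.v. through the same cannula 5 min before PAF, or intraduodenally via surgical cannula 15 min before. Bronchial width recorded by overflow pneumonogram before and after dosing; ED50 in mg/kg i.d. against the PAF-induced attack.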

| SMILES | activity at 10 µM [1] [%] | activity at 50 µM [2] [%] | pIC50 [3] | activity at 10 µM ([4]; 10 μM) [%] | activity at 10 µM ([2]; 10 μM) [%] | activity at 25 µM ([2]; 25 μM) [%] | activity at 100 µM [4] [%] | activity at 5 µM [2] [%] | ED50 [5] [mg/kg] |
| --- | --- | --- | --- | --- | --- | --- | --- | --- | --- |
| CC(C)(C)c1cc(C2CC(CCC(=O)O)=NO2)cc(C(C)(C)C)c1O (centres unmarked) [Example 63, 5-(4-Hydroxy-3,5-di-tert-butylphenyl)-2-isoxazolin-3-ylpropionic acid] | 75 | 79 |  |  |  |  |  |  |  |
| CC(O)c1cc(-c2cc(C(C)(C)C)c(O)c(C(C)(C)C)c2)no1 (centres unmarked) [Example 28] | 93 |  | > 5.30 | 93 | 60 | 8 |  |  |  |
| CCOC(=O)CNC(=O)OCCCc1cc(-c2cc(C(C)(C)C)c(O)c(C(C)(C)C)c2)no1 [Example 41, N-(3-(4-Hydroxy-3,5-di-tert-butylphenyl)isoxazol-5-ylpropoxycarbonyl)glycine ethyl ester] |  | 36 | > 5.30 |  |  |  | 95 | 75 |  |
| CC(C)(C)c1cc(-c2cc(CNS(=O)(=O)C(F)(F)F)on2)cc(C(C)(C)C)c1O [Example 49, N-(3-(4-Hydroxy-3,5-di-tert-butylphenyl)isoxazol-5-ylmethyl)trifluoromethanesulfonamide] |  | 12 | 5.00 to 5.30 |  |  |  |  | 80 | ~50 |
| CC(C)(C)c1cc(C2=NOC(c3ccccn3)C2)cc(C(C)(C)C)c1O (centres unmarked) [Example 9] |  |  |  |  |  |  | 92 |  | ~50 |
